Data published in patent US7435754B2, “Laulimalide microtubule stabilizing agents” (Utah State University, priority 2000, dated 2008).
Where two headings read alike, the source gives them in different places.

Assays:
[1] = system: SK-OV-3 human ovarian carcinoma cell line; test: Inhibition of cell proliferation, SRB assay, SK-OV-3; format: cell-based; details: read-out: IC50 for inhibition of cell proliferation
Method: (§1) The A-10 rat aortic smooth muscle and SK-OV-3 human ovarian carcinoma cell lines were obtained from the American Type Culture Collection (Manassas, Va.) and were cultured in BME containing 10% FBS and 50 μg/mL gentamycin sulfate. A sub-line of SK-OV-3 selected for resistance to vinblastine (SKVLB-1) was provided by Dr. Victor Ling (British Columbia Cancer Center, Vancouver, British Columbia) and was maintained in BME containing 10% FBS and 50 μg/mL gentamycin sulfate. The MDA-MB-435 human mammary adenocarcinoma cell line was obtained from Dr. Mai Higazi (Georgetown University, Washington, D.C.), and was maintained in Richters medium containing 10% FBS and 50 μg/mL gentamycin sulfate. Vinblastine was added to a final concentration of 1 μg/mL to SKVLB-1 cells 24 hours after passage to maintain selection pressure for P-glycoprotein-overexpressing cells.
(§2) The IC50 for inhibition of cell proliferation was determined by measuring cell-associated protein after drug treatment using the sulforhodamine B assay.
(§3) The early literature on laulimalide reported that it was a cytotoxin, but without specifying a mechanism. Experiments were conducted to determine the IC50 values for laulimalide and isolaulimalide in two drug-sensitive cell lines, MDA-MB-435 and SK-OV-3, and in a multidrug-resistant cell line, SKVLB-1. Cells were treated with varying concentrations of the drugs for 48 hours, and cell-associated protein was determined using the SRB assay. The IC50 for each compound was calculated for each cell line.

A-10 cells [2] = test: Immunofluorescence of cellular microtubules and mitotic spindles; format: cell-based, rat; details: for sensitivity of stabilized cellular microtubules to vinblastine / morphological effects on cellular microtubules: A-10 cells; for effect on mitotic spindles: A-10 cells and SK-OV-3 cells; for morphological effects on cellular microtubules: 18 hours, laulimalide 2 μM, isolaulimalide 2-20 μM, paclitaxel 1-20 μM
Method: A-10 cells were grown to 70-85% confluence on glass coverslips in BME supplemented with 10% FBS. Drug compounds in PBS were added to the indicated final concentrations and cells were incubated for an additional […].
(§4) For the staining of microtubules and intermediate filaments, the cells were fixed with cold methanol for 5 minutes, blocked for 20 minutes with PBS containing 10% calf serum to block nonspecific binding sites, and incubated at 37° C. for 90 min with monoclonal anti-β-tubulin at the dilutions recommended by the manufacturer. Bound primary antibodies were subsequently visualized by a one hour incubation with fluorescein(FITC)-conjugated sheep antimouse IgG (F-3008; Sigma). The coverslips were washed, stained with 0.1 μg/mL DAPI for 10 minutes, mounted on microscope slides and the fluorescence patterns were examined and photographed using a Zeiss Axioplan microscope equipped with epifluorescence optics for fluorescein and DAPI.
A-10 cells were treated with laulimalide, isolaulimalide, or paclitaxel for 18 hours and the morphological effects on microtubules examined by indirect immunofluorescence techniques.

[3] = system: SKVLB-1 cell line (P-glycoprotein-overexpressing sub-line of SK-OV-3); test: Inhibition of cell proliferation, SRB assay, multidrug-resistant SKVLB-1; format: cell-based, human; details: for IC50: Homo sapiens, read-out: IC50 for inhibition of cell proliferation; for Resistance Factor: drug-resistant SKVLB-1 versus parental SK-OV-3 IC50
Method: as §1, §2, §3

bovine brain tubulin = test: Tubulin polymerization in vitro; format: biochemical; details: for EC50: Table 2; for effect on tubulin polymerization (in words): absence of polymerization promoters
From the text: FIG. 3 collectively is a graphic representation comparing the effects of Laulimalide and paclitaxel on tubulin polymerization, in which the polymerization of bovine brain tubulin was monitored, and in which:
One characteristic of the microtubule-stabilizing agents paclitaxel, discodermolide, epothilones A and B, and eleutherobin is the ability of these agents to initiate the polymerization of tubulin in the absence of polymerization promoters, such as glycerol. Studies were undertaken to determine the effects of laulimalide on tubulin polymerization.
Samples of the tubulin polymer formed were examined by electron microscopy to determine whether the increase in turbidity measured during the polymerization experiments was due to the formation of microtubule-like polymers or the formation of other structures.

[4] = system: MDA-MB-435 human mammary adenocarcinoma cell line; test: Inhibition of cell proliferation, sulforhodamine B (SRB) assay, MDA-MB-435; format: cell-based; details: for IC50: Homo sapiens
Method: as §1, §2, §3

[5] = system: A-10 rat aortic smooth muscle cell line; test: Inhibition of cell proliferation, A-10 nontransformed line; format: cell-based
Method: as §1, §2
The IC50 for inhibition of proliferation was also determined in the A-10 cell line, a nontransformed line that was used to show the effects of microtubule-stabilizing agents on cellular structures. […]

A-10 cells [6] = test: Micronuclei formation, DAPI staining; format: cell-based, rat; details: for cells exhibiting micronuclei: A-10 cells, 0.02-2 μM, 18 hours; for effect on nuclear structure: A-10 and SK-OV-3 cells, wide range of concentrations
Method: FIG. 1 is a graphic representation comparing the effects of Laulimalide and paclitaxel on micronuclei formation, in which A-10 cells were treated for 18 hours with Laulimalide or paclitaxel, the cells were fixed and nuclei were visualized by DAPI staining;
as §4
The effects of laulimalide on nuclear structure are visible: The normal rounded shape of the nucleus, which is devoid of microtubules, can be detected, whereas in laulimalide-treated cells this distinct microtubule-free area containing the discrete central nucleus was lost and only vesicle-like areas devoid of microtubules remained. […] Similar nuclear changes occurred with isolaulimalide. Paclitaxel also initiated the formation of micronuclei, as has been reported by others.
The difference between the two drugs was statistically significant at all five concentrations tested (P<0.0001).

caspase 3 / PARP = test: Caspase 3 activation and PARP proteolysis, immunoblot of cell lysates; format: cell-based; details: cells treated 42 and 48 hours
From the text: During apoptosis, specific cysteine proteases called the caspases are activated. Activation of the caspase cascade leads to the proteolytic degradation of specific cellular proteins. The activation of caspase 3 and the proteolysis of the DNA repair enzyme PARP, a downstream substrate of caspase 3, were examined in cell lysates from laulimalide-treated cells. Activation of caspase 3 leads to the loss of the 32 kDa proenzyme and the formation of the activation products p17 and p12. […] The loss of the p32 proenzyme is seen at 48 hours. The specific proteolysis of PARP by caspase 3 leads to the formation of two products, an 89 kDa COOH-terminal fragment and a 24 kDa N-terminal fragment. The proteolysis of PARP and the appearance of the 89 kDa degradation product coincided with the activation of caspase 3.

MDA-MB-435 cells = test: Cell cycle distribution by flow cytometry; format: cell-based, human; details: MDA-MB-435, 20 nM
Method: FIG. 2 collectively is a graphic representation comparing the effects of Laulimalide on cell cycle distribution, wherein log phase growth cultures of MDA-MB-435 cells were treated, the cells were fixed, stained, and analyzed on a Coulter EPICS XL-MCL flow cytometer and plotted as events versus propidium iodide fluorescene intensity, and in which:
A common characteristic of anti-microtubule agents is their ability to initiate mitotic arrest. […] This is consistent with the effects of other antimicrotubule agents, where disruption of microtubule dynamics prevents normal mitotic progression and leads to mitotic arrest. […] The mitotic cells were rounded, and the spindles formed a circular pattern with spindle microtubules radiating outward from a microtubule-free core in the center of the cell. In the mitotic cells, the nuclear membranes were not apparent, and the chromatin was condensed and aligned in a circular pattern.
The ultimate mechanism of action of many cytotoxic cancer chemotherapeutic agents is the initiation of pathways of gene and protein expression leading to apoptosis. Antimicrotubule drugs including paclitaxel, vinblastine, and cryptophycin 1 initiate apoptosis both in vitro and in vivo. […] The loss of cellular DNA is detected by the appearance of the subdiploid peak when apoptotic cells are analyzed by flow cytometry. […]

[7] = MDA-MB-435, 48 h, read-out: IC50 for inhibition of cell proliferation

| Structure (SMILES) | sensitivity of stabilized cellular microtubules to vinblastine (A-10 cells [2]) | effect on mitotic spindles (A-10 cells [2]) | morphological effects on cellular microtubules (A-10 cells [2]) | Resistance Factor [3] | polymerization of tubulin at 0° C. (bovine brain tubulin) | EC50 (bovine brain tubulin) | cells exhibiting micronuclei (A-10 cells [6]) | IC50 ([1]; SK-OV-3, 48 h) | IC50 ([3]; SKVLB1, 48 h) | effect on tubulin polymerization (in words) (bovine brain tubulin) | IC50 [4, 7] | effect on nuclear structure (A-10 cells [6]) | further results |
| --- | --- | --- | --- | --- | --- | --- | --- | --- | --- | --- | --- | --- | --- |
| CC(=O)O[C@H]1C(=O)[C@@]2(C)[C@H]([C@H](OC(=O)c3ccccc3)[C@]3(O)C[C@H](OC(=O)[C@H](O)[C@@H](NC(=O)c4ccccc4)c4ccccc4)C(C)=C1C3(C)C)[C@]1(OC(C)=O)CO[C@@H]1C[C@@H]2O [Paclitaxel, reference compound] | resistant to vinblastine-induced depolymerization | Abnormal mitotic spindles | formation of a highly organized array of microtubules, some of which formed thick microtubule bundles | >58,480 | Neither paclitaxel nor laulimalide promoted the polymerization | 1440 ± 60 nM | approximately 40% | – | – | – | – | – | IC50 ([1]; SK-OV-3, 48 hours, SRB, mean ± SD): 1.71 ± 1.07 nM; IC50 ([3]; SKVLB1, SKVLB (SKVLB-1), 48 hours, SRB, mean ± SD): > 100000 nM; inhibition of the SKVLB-1 cell line ([3]; concentrations up to 100 μM): ≤ 70%; IC50 ([4]; MDA-MB-435, 48 hours, SRB, mean ± SD, read-out: IC50 for inhibition of cell proliferation): 1.02 ± 0.25 nM; IC50 ([5]; A10, A-10 cell line, read-out: IC50 for inhibition of proliferation): 40000 nM |
| C=C1C[C@H](C)C[C@@H]2CC=C[C@@H](C/C=C\C(=O)OC([C@@H](O)/C=C/[C@@H]3CC(C)=CCO3)C[C@@H]3OC3[C@@H](O)C1)O2 (stereo partly drawn) [Laulimalide, laulimalide] | resistant to vinblastine-induced depolymerization | Abnormal mitotic spindles | bundles of short tufts of microtubules | 105 | Neither paclitaxel nor laulimalide promoted the polymerization | 4320 ± 400 nM | approximately 60% | 11.5 ± 0.53 nM | 1210 nM | stimulated tubulin polymerization | 5.74 ± 0.58 nM | formation of multiple micronuclei | caspase 3 activation and PARP cleavage (caspase 3 / PARP): Caspase 3 was activated and PARP proteolytically cleaved; kinetics of tubulin formation relative to 20 μM paclitaxel (bovine brain tubulin; 20 μM): twice as fast; additional tubulin polymer formed relative to paclitaxel (bovine brain tubulin; 20 μM of each drug): approximately 30%; stability of tubulin polymers formed (bovine brain tubulin; cold and CaCl2): insensitive to cold and CaCl2-induced depolymerization; IC50 ([4]; MDA-MB-435, read-out: IC50 values, inhibition of cell proliferation (summary of Table 1)): 5 to 12 nM; IC50 ([5]; A10, read-out: IC50 for inhibition of proliferation): 51000 nM; subdiploid peak (apoptosis) (MDA-MB-435 cells; 18 hours): doubling of the subdiploid peak; effect on cell cycle (MDA-MB-435 cells; within nine hours): cell cycle arrest in G2-M |
| C=C1C[C@H](C)C[C@@H]2CC=C[C@@H](C/C=C\C(=O)OC3CC(OC3/C=C/[C@@H]3CC(C)=CCO3)[C@@H](O)[C@@H](O)C1)O2 (stereo partly drawn) [Isolaulimalide, isolaulimalide] | resistant to vinblastine-induced depolymerization | Abnormal mitotic spindles | increase in the density of cellular microtubules, but no microtubule bundles were present | 1.03 | – | – | – | 2570 nM | 2650 nM | stimulated tubulin polymerization | 1970 nM | formation of multiple micronuclei | IC50 values, inhibition of cell proliferation (in words) ([4]; cell lines of Table 1): low μM range |
